Source: article PMC10065276, “Enhanced therapeutic window for antimicrobial Pept-ins by investigating their structure-activity relationship” (PLOS ONE, 2023)
Values after ≈ are worked out from the molar mass of the structure shown. Positions of bridges follow the written chain, without caps; N, C: chain ends. Residues, ends and D or L forms follow the SMILES beside them.

Columns and labels:
[1] = tested on: E. coli XL1-Red (ancestor strain); format: cell-based; settings: XL1-Red (ancestor strain, 17 h)
Description: In a previous study, we generated a P2-resistant strain by subculturing the hypermutable E. coli XL1-Red, which has a 5 000-fold higher mutation rate than wildtype bacteria, at the sub-MIC concentration of P2 for 27 days. […] The MIC of a few categories of P2 variants were determined to investigate whether P2 antimicrobial activity can be restored against P2-resistant bacteria via structure modification. […] The amount of intracellularly accumulated P2_VFV in P2-resistant strains was much higher than P2 (Fig 5A), which was sufficient to induce cell death (FAM^+Draq7^+ cells) (Fig 5B). […] (Fig 5C).
(§1) The peptide MIC was determined via the broth microdilution assay according to the EUCAST guideline, using 96-well polystyrene flat-bottom microtiter plates (BD Biosciences). Briefly, a single colony was inoculated in 5 mL Mueller-Hinton (MH) medium and incubated, while shaking at 37°C, to the end-exponential growth phase. The bacterial culture was subsequently diluted to 0.005 McFarland (McF) (~1.5x10^6 CFU/mL) with fresh MH medium. Two-fold serial peptide-dilutions were prepared in 50 μL MH medium resulting in a concentration range of 0.75 to 100 μg/mL (at least three wells for each concentration). […] The MIC was determined as the lowest peptide concentration without visible bacterial growth.

[2] = tested on: E. coli BL21; settings: BL21, 17 h
How it was run: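 EUCAST broth microdilution in Mueller-Hinton medium; end-exponential culture diluted to 0.005 McF (~1.5x10^6 CFU/mL) before 1:1 mixing with two-fold peptide dilutions (0.75 to 100 μg/mL), triplicates.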

[3] = tested on: E. coli ATCC clinical isolates; assay: microbe, parasite or virus in culture; format: cell-based; settings: ATCC clinical isolates, 17 h
Source text: To address the emerging antibiotic resistance issue, it is not only required to develop active antibiotics against wildtype bacteria, but also against the clinically isolated multidrug-resistant strains. Therefore, we determined whether P2 variants with a 4-fold lower MICs (P2_A5F, V7Y (P2), P2_H12_GV, P2_H12_PEG) (S12 Table) will also show improved antimicrobial activity against these multidrug-resistant strains. Since a high net positive charge could carry inherent developability challenges, we further explored the therapeutic potential of P2 variants with reduced net charge (P2_4R_GV and P2_4R_L) (S12 Table) by determining their antimicrobial activity against these clinically isolated multidrug-resistant strains. The mode of action of these derivatives remains to be inducing protein aggregation in bacteria as shown by the formation of IBs stained by pFTAA after Pept-in treatment (P2, P2-4R-GV, P2_A5F, V7Y (P2), P2_H12_GV, P2_H12_PEG) (S6A Fig) and the presence of a large number of proteins with different molecular weights in purified IBs as shown by the Coomassie staining (S6B Fig), in contrast to the absence of pFTAA staining (S6A Fig) and the presence of only two faint protein bands (S6B Fig) for buffer and control peptide treated bacteria. For clinically isolated multidrug-resistant strains, in addition to the 34 clinical isolates of E. coli ATCC, we added 12 Acinetobacter baumannii (A. baumannii) isolates and 12 Klebsiella pneumoniae (K. pneumoniae) isolates to broaden the selection of the bacterial spectrum.
as §1, with “medium.” for “medium. Two-fold serial peptide-dilutions were prepared in 50 μL MH medium resulting in a concentration range of 0.75 to 100 μg/mL (at least three wells for each concentration).”

[4] = tested on: K. pneumoniae clinical isolates; format: cell-based, Klebsiella pneumoniae; settings: 17 h
Source text: To address the emerging antibiotic resistance issue, it is not only required to develop active antibiotics against wildtype bacteria, but also against the clinically isolated multidrug-resistant strains. Therefore, we determined whether P2 variants with a 4-fold lower MICs (P2_A5F, V7Y (P2), P2_H12_GV, P2_H12_PEG) (S12 Table) will also show improved antimicrobial activity against these multidrug-resistant strains. Since a high net positive charge could carry inherent developability challenges, we further explored the therapeutic potential of P2 variants with reduced net charge (P2_4R_GV and P2_4R_L) (S12 Table) by determining their antimicrobial activity against these clinically isolated multidrug-resistant strains. […]
The peptide MIC was determined via the broth microdilution assay according to the EUCAST guideline, using 96-well polystyrene flat-bottom microtiter plates (BD Biosciences). […] The MIC was determined as the lowest peptide concentration without visible bacterial growth.

Row | SMILES | MIC, Ancestor [1] [µg/mL] | BL21 MIC, SS bond [2] [µg/mL] | BL21 MIC, no SS bond [2] [µg/mL] | BL21 MIC [2] [µg/mL] | MIC [3] [µg/mL] | MIC [4] [µg/mL]
1 | CC(C)C[C@@H]1NC(=O)CNC(=O)[C@H](CCCNC(=N)N)NC(=O)[C@H](C(C)C)NC(=O)[C@H](CCCNC(=N)N)NC(=O)[C@H](CCCNC(=N)N)NC(=O)[C@H](C(C)C)NC(=O)[C@H](CC(C)C)NC(=O)[C@H](C)NC(=O)[C@H](CC(C)C)NC(=O)CNC(=O)[C@H](CC(C)C)NC(=O)[C@@H](NC(=O)[C@@H](N)CCCNC(=N)N)CSSC[C@@H](C(=O)O)NC(=O)[C@H](CO)NC(=O)CNC(=O)[C@H](CCCNC(=N)N)NC(=O)[C@H](CCCNC(=N)N)NC(=O)[C@H](CC(C)C)NC(=O)[C@H](C)NC(=O)[C@H](CC(C)C)NC(=O)CNC1=O [Peptide P2_H6] (H-RCLGLALVRRVRGLGLALRRGSC-OH; disulfide 2-23) | 3.13 (≈ 1.25 µM) | 6.25 | 12.5 | – | – | –
2 | CC(C)C[C@H](NC(=O)CNC(=O)[C@H](CCCNC(=N)N)NC(=O)[C@@H]1CSSC[C@H](NC(=O)[C@@H](NC(=O)[C@H](CC(C)C)NC(=O)[C@H](C)NC(=O)[C@H](CC(C)C)NC(=O)CNC(=O)[C@H](CC(C)C)NC(=O)CNC(=O)[C@@H](N)CCCNC(=N)N)C(C)C)C(=O)N[C@@H](CCCNC(=N)N)C(=O)N[C@@H](CCCNC(=N)N)C(=O)NCC(=O)N[C@@H](C(C)C)C(=O)N1)C(=O)NCC(=O)N[C@@H](CC(C)C)C(=O)N[C@@H](C)C(=O)N[C@@H](CC(C)C)C(=O)N[C@H](C(=O)N[C@@H](CCCNC(=N)N)C(=O)N[C@@H](CCCNC(=N)N)C(=O)O)C(C)C [Peptide P2_H12_GV] (H-RGLGLALVCRRGVCRGLGLALVRR-OH; disulfide 9-14) | 3.13 (≈ 1.22 µM) | 3.13 | 6.25 | 3.13 | – | –
3 | CC(C)C[C@H](NC(=O)CNC(=O)[C@H](CCCNC(=N)N)NC(=O)[C@@H]1CCCN1C(=O)[C@H](CCCNC(=N)N)NC(=O)[C@H](CCCNC(=N)N)NC(=O)[C@H](Cc1ccc(O)cc1)NC(=O)[C@H](CC(C)C)NC(=O)[C@H](C)NC(=O)[C@H](CC(C)C)NC(=O)CNC(=O)[C@H](CC(C)C)NC(=O)CNC(=O)[C@@H](N)CCCNC(=N)N)C(=O)NCC(=O)N[C@@H](CC(C)C)C(=O)N[C@@H](C)C(=O)N[C@@H](CC(C)C)C(=O)N[C@@H](Cc1ccc(O)cc1)C(=O)N[C@@H](CCCNC(=N)N)C(=O)N[C@@H](CCCNC(=N)N)C(=O)O [V7Y (P2)] (H-RGLGLALYRRPRGLGLALYRR-OH) | – | – | – | 3.13 | 8 (≈ 3.29 µM) | 8 (≈ 3.29 µM)
